Laboratory results from the supplement of paper PMC10331698.
± gives the standard deviation of the averaged measurements.

Assays:
Assay in all cases: level (log10 ratio to DMSO vehicle control); higher = higher biomarker level / cell amount than vehicle control
[1] = compound: C=CC(=O)OCC(F)(F)C(F)(F)C(F)(F)COC(=O)C=C [1H,1H,5H,5H-Perfluoro-1,5-pentanediol diacrylate]; conditions: 6700 nM; in DMSO
Experimental: (§1)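 BioMAP Diversity Plus panel of 12 human primary cell co-culture systems (3C, 4H, LPS, SAg, BT, BF4T, BE3C, CASM3C, HDF3CGF, KF3CT, MyoF, Mphg). Compounds were added 1 h before stimulation and left for 24 h (MyoF 48 h; BT 72 h for soluble read-outs or 6 d for IgG). Biomarkers were read by ELISA, cytotoxicity by SRB, PBMC viability and proliferation by Alamar Blue. Each well value was divided by the mean of 8 DMSO control wells on the same plate and log10 transformed; duplicate blinded samples were tested at 4 concentrations.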

[2] = compound: C=C(C)C(=O)OCCC(F)(F)C(F)(F)C(F)(F)C(F)(F)C(F)(F)C(F)(F)F [6:2 Fluorotelomer methacrylate]; conditions: in DMSO
Experimental: as §1

[3] = compound: NS(=O)(=O)C(F)(F)C(F)(F)C(F)(F)C(F)(F)C(F)(F)C(F)(F)F [Perfluorohexanesulfonamide]; conditions: in DMSO
Experimental: as §1

[4] = compound: NC(=O)C(F)(F)C(F)(F)C(F)(F)C(F)(F)C(N)=O [Octafluoroadipamide]; conditions: in DMSO
Experimental: as §1

[5] = compound: FC(F)(F)C(F)(F)C(F)(F)C(F)(F)C(F)(F)C(F)(F)C(F)(F)I [1-Iodopentadecafluoroheptane]; conditions: in DMSO
Experimental: as §1

[6] = compound: FC(F)(F)C(F)(F)C(F)(F)CC1CO1 [1H,1H-Heptafluorobutyl epoxide]; conditions: in DMSO
Experimental: as §1

Test System	level (log10) [1]	level (log10) ([2]; 6700 nM)	level (log10) ([2]; 20000 nM)	level (log10) ([2]; 60000 nM)	level (log10) ([3]; 6700 nM)	level (log10) ([3]; 20000 nM)	level (log10) ([3]; 60000 nM)	level (log10) ([4]; 6700 nM)	level (log10) ([4]; 20000 nM)	level (log10) ([4]; 60000 nM)	level (log10) ([5]; 6700 nM)	level (log10) ([5]; 20000 nM)	level (log10) ([6]; 6700 nM)	level (log10) ([6]; 20000 nM)	level (log10) ([6]; 60000 nM)
BF4T:Keratin 8/18	0.0095 ± 0.0092	-0.0305 ± 0.019	-0.0345 ± 0.044	-0.054 ± 0.013	-0.01 ± 0.033	-0.019 ± 0.017	-0.065 ± 0.067	-0.0025 ± 0.0092	-0.004 ± 0.0014	0.017 ± 0.033	-0.031 ± 0.021	-0.054 ± 0.0028	-0.001 ± 0.011	-0.0025 ± 0.0064	-0.0235 ± 0.0078
BF4T:MMP-1	0.031 ± 0.016	-0.0015 ± 0.005	0.015 ± 0.011	0.015 ± 0.013	0 ± 0.0014	-0.012 ± 0.0042	-0.018 ± 0.0014	-0.006 ± 0.0099	-0.0095 ± 0.0021	0.004 ± 0.016	-0.0055 ± 0.018	0.0005 ± 0.0035	0.014 ± 0.02	0.009 ± 0.024	0.019 ± 0.048
BF4T:MMP-3	0.056 ± 0.028	-0.001 ± 0.013	-0.0215 ± 0.028	0.0055 ± 0.005	-0.0185 ± 0.00071	-0.011 ± 0.0042	0.0695 ± 0.061	-0.0145 ± 0.0078	-0.0145 ± 0.015	0.003 ± 0.038	-0.0345 ± 0.039	-0.0315 ± 0.016	0.003 ± 0.0028	0.0005 ± 0.0035	-0.008 ± 0.02
BF4T:MMP-9	-0.02 ± 0.021	-0.0295 ± 0.096	-0.033 ± 0.028	-0.028 ± 0.062	0.0205 ± 0.021	0.011 ± 0.0085	-0.003 ± 0.0085	-0.0245 ± 0.005	-0.016 ± 0.016	0.0115 ± 0.046	-0.0345 ± 0.063	-0.019 ± 0.013	0.0005 ± 0.011	-0.0055 ± 0.022	-0.008 ± 0.0085
BF4T:PAI-I	-0.0285 ± 0.00071	-0.0175 ± 0.011	-0.007 ± 0.0042	-0.0075 ± 0.0035	0.002 ± 0.0099	0.003 ± 0.0057	-0.0115 ± 0.005	-0.0005 ± 0.0035	-0.0035 ± 0.00071	0.015 ± 0.023	-0.004 ± 0.0085	-0.0235 ± 0.0092	-0.0035 ± 0.011	-0.007 ± 0.0057	-0.02 ± 0.0014
